Laboratory results from ChEMBL document CHEMBL5335800, “Focused Screening Identifies Different Sensitivities of Human TET Oxygenases to the Oncometabolite 2-Hydroxyglutarate” (J Med Chem, 2024).
Active and inactive are the calls of the source. The rule behind the calls is not given here.

Columns and labels:
U2OS [1] = type: toxicity, cell-based; settings: human
[2] = biological target: T1, Methylcytosine dioxygenase TET3 (Homo sapiens, UniProt O43151); assay: Inhibition of human TET3 catalytic domain (E824 to I1795 residues) expressed in mammalian cells using 5-methylcytosine as substrate preincubated for 10 mins followed by DNA-cofactor addition and measured after 10 mins by Alphascreen assay
[3] = biological target: T2, Methylcytosine dioxygenase TET1 (Homo sapiens, UniProt Q8NFU7); assay: Inhibition of N-terminal 3xFlag-tagged human TET1 catalytic domain (E1418 to V2136 residues) expressed in Sf9 cells using 5-methylcytosine as substrate preincubated for 10 mins followed by DNA-cofactor addition and measured after 30 mins by Alphascreen assay
[4] = biological target: T2, Methylcytosine dioxygenase TET1
Homo sapiens [5] = species: Homo sapiens; settings: dose 100.0 µM, time 20.0 min
[6] = biological target: T2, Methylcytosine dioxygenase TET1; type: cell-based; settings: U2OS, dose 1.0 mM
[7] = biological target: T3, Methylcytosine dioxygenase TET2 (Homo sapiens, UniProt Q6N021); settings: sf9
[8] = biological target: T3, Methylcytosine dioxygenase TET2; assay: biochemical
[9] = biological target: T1, Methylcytosine dioxygenase TET3; assay: Inhibition of human TET3 catalytic domain (E824 to I1795 residues) expressed in mammalian cells using 5-methylcytosine as substrate at 100 uM preincubated for 10 mins followed by DNA-cofactor addition and measured after 10 mins by Alphascreen assay relative to control; settings: time 20.0 min
[10] = biological target: T2, Methylcytosine dioxygenase TET1; assay: Inhibition of N-terminal 3xFlag-tagged human TET1 catalytic domain (E1418 to V2136 residues) expressed in Sf9 cells using 5-methylcytosine as substrate at 100 uM preincubated for 10 mins followed by DNA-cofactor addition and measured after 30 mins by Alphascreen assay relative to control; settings: time 40.0 min
Homo sapiens [11] = species: Homo sapiens; assay: (§1) Inhibition of N-terminal His-tagged recombinant human TET2 catalytic domain LCIdel mutant (D1129 to G1936 residues with Y1481 to N1843 replaced by a 3 x GGGGS linker) expressed in Escherichia coli BL21 (DE3) using 5-methylcytosine as substrate at 100 uM preincubated for 10 mins followed by DNA-cofactor addition and measured after 10 mins by Alphascreen assay relative to control; settings: time 20.0 min
Homo sapiens [12] = species: Homo sapiens; assay: as §1, with “Competitive inhibition” for “Inhibition”, “substrate” for “substrate at 100 uM”, “addition in presence of 2-OG” for “addition”, “assay” for “assay relative to control”; settings: time 20.0 min
[13] = biological target: T2, Methylcytosine dioxygenase TET1; type: cell-based; settings: U2OS, dose 3.0 mM
U2OS [14] = type: toxicity, cell-based; settings: human; remark: listed apart in the source
[15] = biological target: T2, Methylcytosine dioxygenase TET1; type: cell-based; settings: U2OS, dose > 33.0 µM

T2 sequence (Q8NFU7 whole entry, the tested form may be a part): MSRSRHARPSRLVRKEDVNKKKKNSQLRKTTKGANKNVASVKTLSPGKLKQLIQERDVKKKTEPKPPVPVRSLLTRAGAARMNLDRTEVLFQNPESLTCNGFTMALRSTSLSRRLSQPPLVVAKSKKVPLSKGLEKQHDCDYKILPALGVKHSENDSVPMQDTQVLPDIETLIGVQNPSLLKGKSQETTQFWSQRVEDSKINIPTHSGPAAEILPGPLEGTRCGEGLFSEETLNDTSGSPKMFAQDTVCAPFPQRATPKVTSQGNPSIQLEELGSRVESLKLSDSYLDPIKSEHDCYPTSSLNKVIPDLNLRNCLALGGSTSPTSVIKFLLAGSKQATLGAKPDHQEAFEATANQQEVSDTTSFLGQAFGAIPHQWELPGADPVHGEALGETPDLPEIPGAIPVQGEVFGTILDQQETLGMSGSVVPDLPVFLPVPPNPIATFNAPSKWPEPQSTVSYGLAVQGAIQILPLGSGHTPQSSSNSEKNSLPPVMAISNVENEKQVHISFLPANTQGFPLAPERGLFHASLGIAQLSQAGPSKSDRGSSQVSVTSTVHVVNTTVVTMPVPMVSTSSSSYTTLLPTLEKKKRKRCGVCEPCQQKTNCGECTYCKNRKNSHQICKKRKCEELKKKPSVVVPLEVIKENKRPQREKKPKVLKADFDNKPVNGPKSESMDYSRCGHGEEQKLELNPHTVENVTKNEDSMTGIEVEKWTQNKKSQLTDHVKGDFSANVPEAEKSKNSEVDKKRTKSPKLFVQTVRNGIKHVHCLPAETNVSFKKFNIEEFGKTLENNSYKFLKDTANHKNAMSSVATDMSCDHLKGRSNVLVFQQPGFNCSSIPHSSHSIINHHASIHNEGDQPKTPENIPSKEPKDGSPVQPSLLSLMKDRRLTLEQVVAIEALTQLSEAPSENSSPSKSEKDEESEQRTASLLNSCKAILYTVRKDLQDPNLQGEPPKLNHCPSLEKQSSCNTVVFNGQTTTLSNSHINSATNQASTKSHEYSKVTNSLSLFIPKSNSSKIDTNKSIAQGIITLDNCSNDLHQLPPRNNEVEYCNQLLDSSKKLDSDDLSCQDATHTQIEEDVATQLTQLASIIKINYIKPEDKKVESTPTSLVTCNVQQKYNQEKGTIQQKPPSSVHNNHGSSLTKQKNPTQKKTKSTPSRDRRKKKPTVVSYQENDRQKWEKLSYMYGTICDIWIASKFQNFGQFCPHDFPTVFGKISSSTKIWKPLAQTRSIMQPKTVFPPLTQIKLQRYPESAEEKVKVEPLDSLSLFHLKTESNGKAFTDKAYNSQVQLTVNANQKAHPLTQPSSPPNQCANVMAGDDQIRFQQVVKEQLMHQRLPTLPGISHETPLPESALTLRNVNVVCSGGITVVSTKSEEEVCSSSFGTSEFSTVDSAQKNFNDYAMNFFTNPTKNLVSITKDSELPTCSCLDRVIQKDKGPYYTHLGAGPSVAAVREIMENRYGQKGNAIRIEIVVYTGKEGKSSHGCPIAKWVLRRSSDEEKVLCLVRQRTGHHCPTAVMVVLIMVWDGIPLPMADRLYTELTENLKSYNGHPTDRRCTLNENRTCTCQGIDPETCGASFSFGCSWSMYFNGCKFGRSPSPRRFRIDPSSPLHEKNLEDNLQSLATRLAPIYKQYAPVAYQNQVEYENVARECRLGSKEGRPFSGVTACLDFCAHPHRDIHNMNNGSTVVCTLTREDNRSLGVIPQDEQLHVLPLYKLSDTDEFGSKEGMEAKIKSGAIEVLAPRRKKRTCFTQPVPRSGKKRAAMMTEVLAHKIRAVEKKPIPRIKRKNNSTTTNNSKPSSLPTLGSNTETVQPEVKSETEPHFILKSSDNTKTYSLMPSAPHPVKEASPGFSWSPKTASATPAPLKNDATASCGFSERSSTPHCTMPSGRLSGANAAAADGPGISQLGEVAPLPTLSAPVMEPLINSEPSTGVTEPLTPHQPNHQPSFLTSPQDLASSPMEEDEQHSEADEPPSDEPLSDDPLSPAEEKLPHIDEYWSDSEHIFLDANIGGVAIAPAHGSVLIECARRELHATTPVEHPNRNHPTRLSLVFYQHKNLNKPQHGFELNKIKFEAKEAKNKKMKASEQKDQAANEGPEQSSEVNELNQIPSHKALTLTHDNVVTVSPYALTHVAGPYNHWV
T1 sequence (O43151 whole entry, the tested form may be a part): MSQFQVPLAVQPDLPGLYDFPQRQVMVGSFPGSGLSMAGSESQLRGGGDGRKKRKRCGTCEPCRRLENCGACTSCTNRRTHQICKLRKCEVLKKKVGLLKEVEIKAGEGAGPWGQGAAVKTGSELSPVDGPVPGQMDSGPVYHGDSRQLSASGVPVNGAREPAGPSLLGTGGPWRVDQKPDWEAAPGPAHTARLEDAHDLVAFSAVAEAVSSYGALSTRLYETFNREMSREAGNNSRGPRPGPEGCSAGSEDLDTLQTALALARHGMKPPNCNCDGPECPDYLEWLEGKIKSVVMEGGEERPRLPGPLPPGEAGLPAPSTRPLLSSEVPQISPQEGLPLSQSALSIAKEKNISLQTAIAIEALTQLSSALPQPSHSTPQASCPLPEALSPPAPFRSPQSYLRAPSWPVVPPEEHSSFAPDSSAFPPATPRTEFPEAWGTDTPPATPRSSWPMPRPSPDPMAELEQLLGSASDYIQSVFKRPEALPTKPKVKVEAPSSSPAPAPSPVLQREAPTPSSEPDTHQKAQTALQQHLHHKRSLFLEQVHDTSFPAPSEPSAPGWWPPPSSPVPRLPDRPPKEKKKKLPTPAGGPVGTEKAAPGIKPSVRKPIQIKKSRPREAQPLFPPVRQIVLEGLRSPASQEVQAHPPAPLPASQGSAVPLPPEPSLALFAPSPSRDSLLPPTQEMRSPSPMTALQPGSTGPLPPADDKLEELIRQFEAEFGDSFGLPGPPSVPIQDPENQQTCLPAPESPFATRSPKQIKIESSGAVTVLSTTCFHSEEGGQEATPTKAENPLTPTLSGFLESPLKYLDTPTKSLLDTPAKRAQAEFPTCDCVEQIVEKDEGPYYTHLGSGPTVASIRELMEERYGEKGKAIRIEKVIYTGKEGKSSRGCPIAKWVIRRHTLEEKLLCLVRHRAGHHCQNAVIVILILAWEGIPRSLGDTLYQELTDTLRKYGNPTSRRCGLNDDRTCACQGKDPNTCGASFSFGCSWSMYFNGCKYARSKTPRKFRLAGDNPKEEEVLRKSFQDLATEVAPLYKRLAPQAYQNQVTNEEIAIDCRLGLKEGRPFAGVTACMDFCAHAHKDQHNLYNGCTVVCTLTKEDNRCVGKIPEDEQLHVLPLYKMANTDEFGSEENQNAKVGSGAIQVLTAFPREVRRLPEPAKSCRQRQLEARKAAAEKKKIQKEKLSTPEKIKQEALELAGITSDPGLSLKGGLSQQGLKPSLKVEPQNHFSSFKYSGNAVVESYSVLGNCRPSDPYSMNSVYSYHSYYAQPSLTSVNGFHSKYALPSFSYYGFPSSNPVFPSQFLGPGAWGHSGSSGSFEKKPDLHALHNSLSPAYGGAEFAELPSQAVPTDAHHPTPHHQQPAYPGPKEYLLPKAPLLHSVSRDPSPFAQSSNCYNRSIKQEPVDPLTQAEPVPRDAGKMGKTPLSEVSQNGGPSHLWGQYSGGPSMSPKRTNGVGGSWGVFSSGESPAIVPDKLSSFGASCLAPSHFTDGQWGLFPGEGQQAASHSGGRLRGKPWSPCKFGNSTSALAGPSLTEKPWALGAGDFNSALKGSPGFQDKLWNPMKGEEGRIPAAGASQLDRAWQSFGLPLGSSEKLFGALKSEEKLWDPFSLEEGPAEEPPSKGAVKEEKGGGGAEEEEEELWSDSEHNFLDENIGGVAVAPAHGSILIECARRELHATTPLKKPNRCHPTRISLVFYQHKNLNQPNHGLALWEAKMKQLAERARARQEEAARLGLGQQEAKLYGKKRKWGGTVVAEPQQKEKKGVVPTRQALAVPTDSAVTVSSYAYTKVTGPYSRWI

CCCCCCCCOC(=O)[C@H](O)CCC(=O)O
pCC50 (U2OS [1]): < 2.7

CN(c1ccccc1)c1ccc2c(c1)CCC[C@H]2CNc1cnccc1C(=O)O
IC50 ([2]; read-out: IC50): > 100 µM | IC50 ([3]; read-out: IC50): > 100 µM

COC(=O)CCC(=O)C(=O)OC
pCC50 (U2OS [1]): < 2

O=c1c(-n2ccnn2)c[nH]n1-c1cc(N2CCOCC2)ncn1 [MOLIDUSTAT]
EC50 [4]: ~100 µM

Cc1cn([C@H]2C[C@H](O)[C@@H](CO)O2)c(=O)nc1N
inhibition (Homo sapiens [5]): < 20%

COC(=O)c1ccnc(C(=O)OC)c1
inhibition [6]: inactive

O=C(O)CNC(=O)c1c(O)n(C2CCCCC2)c(=O)n(C2CCCCC2)c1=O
IC50 [7]: ≥ 100 µM | IC50 [8]: ≥ 100 µM | IC50 ([2]; read-out: IC50): ≥ 100 µM | IC50 ([2]; read-out: pIC50 (converted)): ≥ 100 µM | inhibition [9]: 36% | inhibition [10]: 63% | IC50 ([3]; read-out: pIC50 (converted)): ≥ 100 µM | IC50 ([3]; sf9, read-out: IC50): ≥ 100 µM

Nc1nc(=O)n([C@H]2C[C@H](O)[C@@H](CO)O2)cc1CO
inhibition (Homo sapiens [5]): < 20%

Cc1nc(C(=O)NCC(=O)O)c(O)c2ccc(Oc3ccccc3)cc12 [ROXADUSTAT]
inhibition (Homo sapiens [11]): < 20% | IC50 ([2]; read-out: IC50): ≥ 100 µM | IC50 ([2]; read-out: pIC50 (converted)): ≥ 100 µM | IC50 ([3]; read-out: pIC50 (converted)): ≥ 100 µM | IC50 ([3]; sf9, read-out: IC50): ≥ 100 µM

O=C(O)CCNc1cc(N2CCc3ccccc3CC2)nc(-c2ccccn2)n1
inhibition (Homo sapiens [11]): < 20% | IC50 ([3]; read-out: IC50): > 100 µM

O=C(O)CNC(=O)c1c(O)c2ccccc2n(Cc2ccccc2)c1=O
IC50 ([2]; read-out: IC50): ≥ 100 µM | IC50 ([2]; read-out: pIC50 (converted)): ≥ 100 µM | inhibition [9]: < 20% | IC50 ([3]; read-out: pIC50 (converted)): ≥ 100 µM | IC50 ([3]; sf9, read-out: IC50): ≥ 100 µM

O=C(O)c1ccc(O)c2ncccc12
inhibition (Homo sapiens [12]): Active

CCCCCCCCOC(=O)[C@@H](O)CCC(=O)O
pCC50 (U2OS [1]): < 2.7 | inhibition [13]: inactive

Cc1[nH]c2ccccc2c1CCNCc1ccc(/C=C/C(=O)NO)cc1 [PANOBINOSTAT]
Activity (U2OS [14]): Dose-Dependent Effect | inhibition [15]: Active

CC(C)c1c(-c2ccccc2)[nH]c2c(C#N)cnn2c1=O
inhibition (Homo sapiens [11]): < 20% | inhibition (Homo sapiens [5]): < 20% | IC50 ([2]; read-out: IC50): > 100 µM | inhibition [9]: < 20% | inhibition [10]: < 20% | IC50 ([3]; read-out: IC50): > 100 µM

CCN(CCN(C)C)C(=O)CNCc1cc(C(N)=O)ccn1
inhibition (Homo sapiens [5]): < 20% | IC50 ([2]; read-out: IC50): > 100 µM | inhibition [9]: < 20% | inhibition [10]: < 20% | IC50 ([3]; read-out: IC50): > 100 µM

O=C(O)CNC(=O)c1nc(Cl)c2ccccc2c1O
IC50 ([2]; read-out: IC50): ≥ 100 µM | IC50 ([2]; read-out: pIC50 (converted)): ≥ 100 µM | IC50 ([3]; read-out: pIC50 (converted)): ≥ 100 µM | IC50 ([3]; sf9, read-out: IC50): ≥ 100 µM
